The values that follow come from patent publication US20110076293A1, “TRIPTOLIDE DERIVATIVES FOR MODULATION OF APOPTOSIS AND IMMUNOSUPPRESSION” (priority 2002, published 2011).

Series [1] relates to Jurkat human T lymphocyte cell line. Description: Apoptosis assay (Annexin V) of compounds incubated with human serum. Here is the method: (§1) Compounds of formula I, as shown in Table 1 above and in the Examples, were assayed for their capacity to induce apoptosis in cells from the Jurkat human T lymphocyte cell line, after incubation with pooled human serum for varying periods of time at 37° C. (see Example 19). An ester prodrug, triptolide-14-succinate, designated PG490-88, was included for comparison. The extent of conversion to triptolide after such incubation was also independently determined by HPLC analysis.
The ED50 values (column 3) are calculated directly from the data in each experiment, and the % conversion values (column 4) are calculated as percent of the ED50 value produced by triptolide, designated PG490, incubated in the same plasma (i.e. in the same experiment).
A. Incubation of compounds with human serum. Pooled human serum was stored in aliquots at −80° C. Test compounds were added at 20 mM to thawed human serum in 1.5 ml microfuge tubes and incubated at 37° C. in a water bath for varying periods of time. The test samples were placed on ice until dilution for the bioassay. Controls consisted of the compounds incubated in complete tissue culture medium (RPMI 1640 medium plus 5% heat-inactivated fetal calf serum, 1% HEPES, 1% pen/strep, 1% glutamine) rather than human serum.
B. Apoptosis assay of compounds incubated with human serum. Test samples were diluted to 1 mM in complete tissue culture medium. Aliquots were placed in microculture plates and serial dilutions were prepared so that the final concentration would encompass the range of 1 to 10,000 nM with half-log increments. Cells from an exponentially expanding culture of the Jurkat human T lymphocyte cell line (#TIB-152 obtained from American Type Culture Collection, Manassas, Va.) were harvested, washed once by centrifugation and dilution in complete tissue culture medium, and diluted to a concentration of 1×10^6 cells/ml. A volume of 100 μl of Jurkat cells (1×10^5 cells) was added to wells containing 100 μl of the diluted compounds, and the plates were incubated at 37° C. in a 5% CO2 incubator. After 24 hours, the plates were centrifuged to pellet the cells, and the cells were washed twice with 2% heat-inactivated fetal calf serum in PBS. To each well, 500 ul of binding buffer was added according to the Annexin V assay procedure (BioVision, Inc., Mountain View, Calif.). Next, 5 μl of the fluorescein isothiocyanate (FITC) conjugate of Annexin V (BioVision, Inc.) was added to each well, followed by 5 minutes of incubation in the dark. In some assays, propidium iodide (BioVision, Inc.) was added at this stage to check for necrotic cells. The contents of the wells were individually transferred into test tubes, and apoptosis was analyzed using a FACSCalibur flow cytometer (BD Immunocytometry Systems, San Jose, Calif.). Cells positive for Annexin V binding were considered to be apoptotic, and the data were calculated as percent apoptotic cells.
C. Comparison of bioactivities after incubation of compounds in human serum. The data were plotted as the concentration of compound incubated in serum versus percent apoptotic cells. The concentration of compound inducing 50% apoptosis (ED50) was calculated from these dose response curves. […] This percentage conversion was used to compare the bioactivity of various compounds after incubation in human serum.

A short description of series [2]: in vitro. Conditions: for half-life: human, plasma; for max. conversion at 48 hr in human plasma by HPLC: incomplete conversion to triptolide, 48 hr incubation. Here is the method:
as §1
Prodrug conversions to triptolide as determined independently by HPLC are given in […].

In series [3] the test system is IL-2 production in Jurkat human T lymphocyte cells. Description: IL-2 production assay for activity of compounds incubated with human serum. Conditions: for IC50: IL-2 production in Jurkat cells after incubation with pooled human serum for 48 hours at 37° C.; for Conversion (%): percent of the IC50 value produced by triptolide (PG490) in the same experiment, human serum 48 hours. Here is the method:
Several compounds of formula I were analyzed for their capacity to inhibit IL-2 production in Jurkat human T lymphocyte cells, after incubation with pooled human serum for 48 hours at 37° C. (see Example 20). An ester prodrug, triptolide-14-succinate, designated PG490-88, was included for comparison.
The IC50 values (column 1) are calculated directly from the data in each experiment. The % conversion values (column 2) are calculated as the percent of the IC50 value produced by triptolide, designated PG490, incubated in the same plasma (i.e. in the same experiment).
A. IL-2 production assay for activity of compounds incubated with human serum. Test samples were diluted to 1 mM in complete tissue culture medium. […] Cells from an exponentially expanding culture of the Jurkat human T lymphocyte cell line (#TIB-152 obtained from American Type Culture Collection, Manassas, Va.) were harvested, washed once by centrifugation and dilution in complete tissue culture medium, and diluted to a concentration of 2×10^6 cells/ml. A volume of 50 μl of Jurkat cells (1×10^5 cells) was added to wells containing 100 μl of the diluted compounds, 50 μl of PMA (10 ng/ml) was added to each well, and the plates were incubated at 37° C. in a 5% CO2 incubator. After 24 hours, the plates were centrifuged to pellet the cells, 150 μl of supernatant was removed from each well, and the samples were stored at −20° C. The stored supernatants were analyzed for human IL-2 concentration using the Luminex 100 (Luminex Corporation, Austin, Tex.), Luminex microspheres coupled with anti-IL-2 capture antibody, and fluorochrome-coupled anti-IL-2 detection antibody. The data were expressed as ng/ml of IL-2.
B. Comparison of bioactivities after incubation of compounds in human serum. The data were plotted as the concentration of compound incubated in serum versus IL-2 concentration. The concentration of compound inducing a 50% decrease in the IL-2 concentration (IC50) was calculated from these dose response curves. […] This percentage conversion was used to compare the bioactivity of various compounds after incubation in human serum.

Where [4] appears, read: Homo sapiens, Jurkat, 0.5 h, read-out: ED50 (nM) in apoptosis assay after incubation with serum, incubation time in human serum 0.5 hours, 37° C.
The mark [5] stands for this setting: Homo sapiens, Jurkat, 1 h, read-out: ED50 (nM) in apoptosis assay after incubation with serum, incubation time in human serum 1 hour, 37° C.
The mark [6] stands for this setting: Homo sapiens, Jurkat, 48 h, read-out: ED50 (nM) in apoptosis assay after incubation with serum, incubation time in human serum 48 hours, 37° C.
The mark [7] stands for this setting: incubation time in human serum 0.5 hours.
The mark [8] stands for this setting: incubation time in human serum 1 hour.
The mark [9] stands for this setting: incubation time in human serum 48 hours.

Structures can show the parent of a compound that is named as a salt. Where two headings read alike, the source gives them in different places.

For the compound `CCOC(=O)O[C@@H]1[C@@]2(C(C)C)O[C@H]2[C@@H]2O[C@]23[C@]12O[C@H]2C[C@H]1C2=C(CC[C@@]13C)C(=O)OC2` [PG674, Triptolide 14-Ethyl Carbonate], the EC50 in series [1] (setting [4]) came to 27 nM; in series [1] (setting [5]) it was 55 nM; in series [1] (Homo sapiens, Jurkat, 24 h, read-out: ED50 (nM) in apoptosis assay after incubation with serum, incubation time in human serum 24 hours, 37° C.) it was 60 nM; in series [1] (setting [6]) it was 65 nM. Besides, the “Conversion, as relative ED50 compared to triptolide (%)” value (“Conversion, as relative ED50 … (%)” for short) in series [1] (setting [7]) was 188%; in series [1] (setting [8]), 98%; in series [1] (incubation time in human serum 24 hours), 97%; in series [1] (setting [9]), 100%. In series [2], this compound gave a half-life of 12 min.

Turning to `CC(C)[C@]12O[C@H]1[C@@H]1O[C@]13[C@]1(O[C@H]1C[C@H]1C4=C(CC[C@@]13C)C(=O)OC4)[C@@H]2OC(=O)Oc1ccccc1` [PG676, Triptolide 14-Phenyl Carbonate], the EC50 in series [1] (setting [6]) was found to be 56 nM. The “Conversion, as relative ED50 … (%)” value in series [1] (setting [9]) was 96%. The half-life in series [2] was 15 min. In addition, the IC50 in series [3] (Homo sapiens, Jurkat, 48 h) was found to be 6 nM. Moreover, in series [3], the “Conversion (%)” value was 84%.

With `CCOCCOC(=O)O[C@@H]1[C@@]2(C(C)C)O[C@H]2[C@@H]2O[C@]23[C@]12O[C@H]2C[C@H]1C2=C(CC[C@@]13C)C(=O)OC2` [PG679, Triptolide 14-Ethoxyethyl Carbonate], the EC50 in series [1] (setting [4]) worked out at 39 nM. In series [1] (setting [7]), the “Conversion, as relative ED50 … (%)” value amounted to 128%. Moreover, the half-life in series [2] came out at 11 min. The compound further registered an IC50 in series [3] (Homo sapiens, Jurkat, 48 h) of 12 nM. Further, in series [3], the “Conversion (%)” value is reported as 11%.

Turning to `COC(=O)COC(=O)O[C@@H]1[C@@]2(C(C)C)O[C@H]2[C@@H]2O[C@]23[C@]12O[C@H]2C[C@H]1C2=C(CC[C@@]13C)C(=O)OC2` [PG680, Triptolide 14-Methoxycarbonylmethyl Carbonate], the EC50 in series [1] (setting [6]) came out at 58 nM. Also, in series [1] (setting [9]), the “Conversion, as relative ED50 … (%)” value turned out to be 85%. In series [2], this compound showed a half-life of 9 min. This compound also came in with an IC50 in series [3] (Homo sapiens, Jurkat, 48 h) of 3 nM. Moreover, the “Conversion (%)” value in series [3] is 44%.

Consider `CC(C)[C@]12O[C@H]1[C@@H]1O[C@]13[C@]1(O[C@H]1C[C@H]1C4=C(CC[C@@]13C)C(=O)OC4)[C@@H]2OC(=O)OCCN(C)C` [PG682, Triptolide 14-Dimethylaminoethyl Carbonate], for which the EC50 turned out to be 66 nM in series [1] (setting [5]) and 32 nM in series [1] (setting [6]). Further, the entries for the “Conversion, as relative ED50 … (%)” value in series [1] (setting [8]) and in series [1] (setting [9]) were 76% and 146%, respectively. Besides, the half-life in series [2] came out at 17 min. For the same compound, in series [3], the IC50 came to 23 nM. Further, in series [3], the “Conversion (%)” value was 78%.

For the compound `CC(C)[C@]12O[C@H]1[C@@H]1O[C@]13[C@]1(O[C@H]1C[C@H]1C4=C(CC[C@@]13C)C(=O)OC4)[C@@H]2OC(=O)OCCN(C)C.Cc1ccc(S(=O)(=O)O)cc1` [PG682PTSA, p-Toluenesulfonate Salt of Triptolide 14-Dimethylaminoethyl Carbonate], the “Conversion, as relative ED50 … (%)” value in series [1] (setting [8]) stood at 89%. Further, in series [1] (read-out: ED50 (nM) in apoptosis assay after incubation with serum, incubation time in human serum 1 hour, 37° C.), the EC50 turned out to be 57 nM. This compound also returned a half-life in series [2] of 17 min. Also, in series [3], the concentration for half-maximal inhibition (IC50) is 2 nM and the “Conversion (%)” value is listed as 97%.

As for `CC(C)[C@]12O[C@H]1[C@@H]1O[C@]13[C@]1(O[C@H]1C[C@H]1C4=C(CC[C@@]13C)C(=O)OC4)[C@@H]2OC(=O)OCC(=O)O` [PG687, Triptolide 14-Hydroxycarbonylmethyl Carbonate], the “Conversion, as relative ED50 … (%)” value in series [1] (setting [9]) turned out to be 6%. The “max. conversion at 48 hr in human plasma by HPLC” value (shortened to “max. conversion at 48 hr”) in series [2] is on record as 10%. The compound further had an IC50 in series [3] (Homo sapiens, Jurkat, 48 h) of 61 nM. Also, in series [3], the “Conversion (%)” value came out at 2%.

Take `CC(C)[C@]12O[C@H]1[C@@H]1O[C@]13[C@]1(O[C@H]1C[C@H]1C4=C(CC[C@@]13C)C(=O)OC4)[C@@H]2OC(=O)OCC(=O)[O-].[Na+]` [PG687Na, Sodium Salt of Triptolide 14-Hydroxycarbonylmethyl Carbonate]: in series [2], the “max. conversion at 48 hr” value is recorded as 10%. Moreover, in series [3], inhibition was half-maximal at 92 nM (IC50) and the “Conversion (%)” value is recorded as 1%.

Regarding `CC(C)[C@]12O[C@H]1[C@@H]1O[C@]13[C@]1(O[C@H]1C[C@H]1C4=C(CC[C@@]13C)C(=O)OC4)[C@@H]2OC(=O)OCC(=O)O` [PG687tris, Tris(hydroxymethyl)aminomethane Salt of Triptolide 14-Hydroxycarbonyl-methyl Carbonate], the EC50 in series [1] (setting [6]) was 960 nM. In addition, the “Conversion, as relative ED50 … (%)” value in series [1] (setting [9]) was 6%. In series [2], the “max. conversion at 48 hr” value is “max. 10% at”. This compound also gave an IC50 in series [3] (Homo sapiens, Jurkat, 48 h) of 29 nM. In addition, in series [3], the “Conversion (%)” value turned out to be 6%.

In general, half-life refers to the time needed for the level to fall by half in the phase considered. In general, IC50 refers to the concentration that gives 50% inhibition. A higher IC50 goes with weaker potency in that assay.
